The record followed here is US20140107109A1, “AMINO-DIHYDROTHIAZINE AND AMINO-DIOXIDO DIHYDROTHIAZINE COMPOUNDS AS BETA-SECRETASE ANTAGONISTS AND METHODS OF USE” (Amgen Inc., priority 2012, published 2014).

Assay [1] addresses Beta Secretase enzyme (BACE1) (Homo sapiens, UniProt P56817). Kind of assay: In vitro enzymatic BACE FRET assay. As to conditions: read-out: BACE1 FRET assay IC50. It counts as biochemical. In outline: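 BACE1 cleavage of a 50 nM fluorophore/quencher peptide FRET substrate ran for one hour in 0.05 M acetate pH 4.2, 10% DMSO, 100 uM genapol. Tris buffer raised pH to neutrality to stop the reaction before fluorescence was read (excitation 488 nm, […]).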

For assay [2], the system named is Aβ40 in conditioned medium of cells stably expressing Amyloid Precursor Protein (APP). Kind of assay: In vitro BACE cell-based assay (HEK cell assay), Aβ40 sandwich ELISA. The note with it: Homo sapiens, HEK293. The method in brief:
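APP-stably expressing cells (40K/well, grown 24 h in DMEM/10% FBS) were treated 24 h with compounds in 10-point dose response starting at 100 μM or 10 μM, 0.1% DMSO final. Secreted Aβ40 was measured by sandwich ELISA (pAb40 capture, biotinylated 6E10 detection, europium time-resolved fluorescence); IC50 from percent inhibition.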
A general note: An ELISA detects its analyte on a solid surface through an enzyme-linked reagent.

The next assay addresses T1, Cathepsin D (Cat D) (Homo sapiens, UniProt P07339).
T1 construct: Recombinant Cat D was expressed in CHO cells; made in house; host or cells: CHO cells
Kind of assay: In vitro enzymatic Cathepsin D (Cat D) FRET assay. It counts as biochemical. As to conditions: read-out: CatD IC50. In outline: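 Recombinant Cat D expressed in CHO cells, used at 9 nM and pre-incubated one hour with serially diluted inhibitor in DMSO. Peptide substrate carries a fluorophore and quencher flanking the cleavage site; reaction stopped with Tris buffer raising pH to neutrality, then fluorescence read.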

Read-outs that look alike come from different tables or passages of the source. Where only a bound is given, the exact number is not on record here.

Chain of Beta Secretase enzyme (BACE1) (P56817 46-501): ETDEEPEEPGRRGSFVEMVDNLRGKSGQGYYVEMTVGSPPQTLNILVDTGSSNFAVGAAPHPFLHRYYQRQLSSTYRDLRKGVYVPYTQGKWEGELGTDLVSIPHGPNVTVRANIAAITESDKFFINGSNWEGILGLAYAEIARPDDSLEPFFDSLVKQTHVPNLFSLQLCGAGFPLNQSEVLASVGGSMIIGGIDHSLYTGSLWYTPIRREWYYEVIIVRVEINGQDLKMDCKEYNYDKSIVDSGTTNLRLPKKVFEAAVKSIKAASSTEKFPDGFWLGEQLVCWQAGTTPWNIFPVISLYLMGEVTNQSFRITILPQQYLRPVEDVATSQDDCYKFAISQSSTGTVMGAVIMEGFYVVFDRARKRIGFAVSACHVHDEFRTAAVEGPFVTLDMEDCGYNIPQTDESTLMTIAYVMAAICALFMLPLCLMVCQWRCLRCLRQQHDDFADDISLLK
T1 sequence (P07339 65-412, species assumed): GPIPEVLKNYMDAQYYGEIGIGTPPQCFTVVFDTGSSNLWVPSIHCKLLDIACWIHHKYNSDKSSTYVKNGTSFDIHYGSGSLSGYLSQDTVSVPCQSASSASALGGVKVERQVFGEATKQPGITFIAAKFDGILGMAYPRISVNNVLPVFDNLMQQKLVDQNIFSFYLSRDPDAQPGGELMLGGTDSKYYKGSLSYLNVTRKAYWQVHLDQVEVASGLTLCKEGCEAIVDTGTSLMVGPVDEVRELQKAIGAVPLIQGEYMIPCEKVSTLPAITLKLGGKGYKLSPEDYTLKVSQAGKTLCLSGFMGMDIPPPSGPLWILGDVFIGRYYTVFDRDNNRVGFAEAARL

Turning to `C[C@@]1(c2cc(NC(=O)c3ccc(Cl)cn3)ccc2F)CS(=O)(=O)C2(CCC2)C(N)=N1` [Example 416, N-(3-((7R)-9-amino-7-methyl-5,5-dioxido-5-thia-8-azaspiro[3.5]non-8-en-7-yl)-4-fluorophenyl)-5-chloro-2-pyridinecarboxamide], the half-inhibitory concentration (IC50) (in general, the concentration that inhibits the measured activity by half) in assay [1] stood at 0.00236 µM; in assay [2], 0.0059 µM; at Cathepsin D (Cat D) it was 59.5 µM.
Taken in the same sequence, the figures for `NC1=N[C@](CF)(c2cc(N)ccc2F)CS(=O)(=O)C12CCC2` [Example 417, (7S)-7-(5-amino-2-fluorophenyl)-7-(fluoromethyl)-5-thia-8-azaspiro[3.5]non-8-en-9-amine 5,5-dioxide] were 2.1 µM, 3.65 µM and 69.7 µM.
Regarding `NC1=N[C@@](CF)(c2cc(Br)ccc2F)CS(=O)(=O)C12CCC2` [Example 418, (7R)-7-(5-bromo-2-fluorophenyl)-7-(fluoromethyl)-5-thia-8-azaspiro[3.5]non-8-en-9-amine 5,5-dioxide], the half-inhibitory concentration (IC50) was above 40 µM in assay [1] (average IC50, enzyme assay); above 15.6 µM in assay [2] (average IC50, cell assay); above 400 µM at Cathepsin D (Cat D).
The corresponding values for `CC1(C)C(N)=N[C@](C)(c2cc(Nc3nccc4cc(OCC(F)(F)F)cnc34)ccc2F)CS1(=O)=O` [Example 419, N-(3-((3R)-5-amino-3,6,6-trimethyl-1,1-dioxido-3,6-dihydro-2H-1,4-thiazin-3-yl)-4-fluorophenyl)-3-(2,2,2-trifluoroethoxy)-1,7-naphthyridin-8-amine] are 0.00451 µM, 0.026 µM and 631 µM.
The corresponding values for `CC1(C)C(N)=N[C@](C)(c2cc(Nc3nccc4cc(OCC#N)cnc34)ccc2F)CS1(=O)=O` [Example 420, ((8-((3-((3R)-5-amino-3,6,6-trimethyl-1,1-dioxido-3,6-dihydro-2H-1,4-thiazin-3-yl)-4-fluorophenyl)amino)-1,7-naphthyridin-3-yl)oxy)acetonitrile] are 0.00485 µM, 0.0054 µM and 1260 µM.
Taken in the same sequence, the figures for `CC1(C)C(N)=N[C@](C)(c2cc(Nc3nccc4cc(OCCF)cnc34)ccc2F)CS1(=O)=O` [Example 421, N-(3-((3R)-5-amino-3,6,6-trimethyl-1,1-dioxido-3,6-dihydro-2H-1,4-thiazin-3-yl)-4-fluorophenyl)-3-(2-fluoroethoxy)-1,7-naphthyridin-8-amine] were 0.031 µM, 0.0115 µM and 1450 µM.
`CCOc1cnc2c(Nc3ccc(F)c([C@]4(C)CS(=O)(=O)C(C)(C)C(N)=N4)c3)nccc2c1` [Example 422, N-(3-((3R)-5-amino-3,6,6-trimethyl-1,1-dioxido-3,6-dihydro-2H-1,4-thiazin-3-yl)-4-fluorophenyl)-3-ethoxy-1,7-naphthyridin-8-amine]: the half-maximal inhibitory concentration (IC50) in assay [1] (average IC50, enzyme assay) stood at 0.0184 µM; in assay [2] (average IC50, cell assay), 0.029 µM; on Cathepsin D (Cat D), 958 µM.
Taken in the same sequence, the figures for `C[C@]1(F)C(N)=N[C@](C)(c2cc(Nc3nccc4nc(C(F)(F)F)cnc34)ccc2F)CS1(=O)=O` [Example 423, N-(3-((3R,6R)-5-amino-6-fluoro-3,6-dimethyl-1,1-dioxido-3,6-dihydro-2H-1,4-thiazin-3-yl)-4-fluorophenyl)-2-(trifluoromethyl)pyrido[3,4-b]pyrazin-5-amine] were 0.0013 µM, 0.735 µM and above 133 µM.
The corresponding values for `COc1ncc(NC(=O)c2ccccn2)cc1[C@]1(C)CS(=O)(=O)C(C)(C)C(N)=N1` [Example 424, N-(5-((3R)-5-amino-3,6,6-trimethyl-1,1-dioxido-3,6-dihydro-2H-1,4-thiazin-3-yl)-6-methoxy-3-pyridinyl)-2-pyridinecarboxamide] are 0.298 µM, 0.131 µM and 567 µM.
For `CC1(C)C(N)=N[C@](CF)(c2cc(Nc3ncc(F)c4cc(OCC5CC5)cnc34)ccc2F)CS1(=O)=O` [Example 431, N-(3-((3S)-5-amino-3-(fluoromethyl)-6,6-dimethyl-1,1-dioxido-3,6-dihydro-2H-1,4-thiazin-3-yl)-4-fluorophenyl)-3-(cyclopropylmethoxy)-5-fluoro-1,7-naphthyridin-8-amine], the IC50 in assay [1] (average IC50, enzyme assay) is 0.0012 µM; in assay [2] (average IC50, cell assay), 0.1 µM; at Cathepsin D (Cat D) it was 476 µM.
As for `CC1(C)C(N)=N[C@](CF)(c2cc(Nc3ncc(F)c4cc(OCC(F)(F)F)cnc34)ccc2F)CS1(=O)=O` [Example 432, N-(3-((3S)-5-amino-3-(fluoromethyl)-6,6-dimethyl-1,1-dioxido-3,6-dihydro-2H-1,4-thiazin-3-yl)-4-fluorophenyl)-5-fluoro-3-(2,2,2-trifluoroethoxy)-1,7-naphthyridin-8-amine], the IC50 amounted to 0.00247 µM in assay [1] (average IC50, enzyme assay); 0.187 µM in assay [2] (average IC50, cell assay); 312 µM on Cathepsin D (Cat D).
Taken in the same sequence, the figures for `CC1(C)C(N)=N[C@](CF)(c2cc(Nc3ncc(F)c4cc(O)cnc34)ccc2F)CS1(=O)=O` [Example 433, 8-((3-((3S)-5-amino-3-(fluoromethyl)-6,6-dimethyl-1,1-dioxido-3,6-dihydro-2H-1,4-thiazin-3-yl)-4-fluorophenyl)amino)-5-fluoro-1,7-naphthyridin-3-ol] were 0.0006 µM, 0.0314 µM and 111 µM.
Regarding `CC1(C)C(N)=N[C@](CF)(c2cc(Nc3ncc(F)c4cc(OCC5CCC5)cnc34)ccc2F)CS1(=O)=O` [Example 434, N-(3-((3S)-5-amino-3-(fluoromethyl)-6,6-dimethyl-1,1-dioxido-3,6-dihydro-2H-1,4-thiazin-3-yl)-4-fluorophenyl)-3-(cyclobutylmethoxy)-5-fluoro-1,7-naphthyridin-8-amine], the concentration for half-maximal inhibition (IC50) in assay [1] (average IC50, enzyme assay) came to 0.0015 µM; in assay [2] (average IC50, cell assay), 0.341 µM; at Cathepsin D (Cat D) it was 32.3 µM.
As for `CCOc1cnc2c(Nc3ccc(F)c([C@]4(CF)CS(=O)(=O)C(C)(C)C(N)=N4)c3)ncc(F)c2c1` [Example 435, N-(3-((3S)-5-amino-3-(fluoromethyl)-6,6-dimethyl-1,1-dioxido-3,6-dihydro-2H-1,4-thiazin-3-yl)-4-fluorophenyl)-3-ethoxy-5-fluoro-1,7-naphthyridin-8-amine], the IC50 in assay [1] (average IC50, enzyme assay) was 0.0016 µM; in assay [2] (average IC50, cell assay), 0.049 µM; on Cathepsin D (Cat D) it was above 400 µM.
Taken in the same sequence, the figures for `CC(C)COc1cnc2c(Nc3ccc(F)c([C@]4(CF)CS(=O)(=O)C(C)(C)C(N)=N4)c3)ncc(F)c2c1` [Example 436, N-(3-((3S)-5-amino-3-(fluoromethyl)-6,6-dimethyl-1,1-dioxido-3,6-dihydro-2H-1,4-thiazin-3-yl)-4-fluorophenyl)-5-fluoro-3-(2-methylpropoxy)-1,7-naphthyridin-8-amine] were 0.0043 µM, 0.626 µM and 61.6 µM.
As for `CC1(C)C(N)=N[C@](CF)(c2cc(Nc3ncc(F)c4cc(OCC(F)F)cnc34)ccc2F)CS1(=O)=O` [Example 437, N-(3-((3S)-5-amino-3-(fluoromethyl)-6,6-dimethyl-1,1-dioxido-3,6-dihydro-2H-1,4-thiazin-3-yl)-4-fluorophenyl)-3-(2,2-difluoroethoxy)-5-fluoro-1,7-naphthyridin-8-amine], the 50% inhibitory concentration (IC50) in assay [1] (average IC50, enzyme assay) was 0.00223 µM; in assay [2] (average IC50, cell assay), 0.0643 µM; on Cathepsin D (Cat D) it was above 1.65 µM.
With `CCOc1cnc2c(Nc3ccc(F)c([C@]4(CF)CS(=O)(=O)C5(CCC5)C(N)=N4)c3)ncc(F)c2c1` [Example 438, N-(3-((7S)-9-amino-7-(fluoromethyl)-5,5-dioxido-5-thia-8-azaspiro[3.5]non-8-en-7-yl)-4-fluorophenyl)-3-ethoxy-5-fluoro-1,7-naphthyridin-8-amine], the IC50 was 0.00382 µM in assay [1] (average IC50, enzyme assay); 0.198 µM in assay [2] (average IC50, cell assay); above 1.65 µM on Cathepsin D (Cat D).
The corresponding values for `CC1(C)C(N)=N[C@](C)(c2cc(Sc3ncccc3F)ccc2F)CS1(=O)=O` [Example 439, (5R)-5-(2-fluoro-5-((3-fluoro-2-pyridinyl)sulfanyl)phenyl)-2,2,5-trimethyl-5,6-dihydro-2H-1,4-thiazin-3-amine 1,1-dioxide] are 0.375 µM, 0.99 µM and 215 µM.
Regarding `CC1(C)C(N)=N[C@](C)(c2cc(Sc3cc(C#N)ccn3)ccc2F)CS1(=O)=O` [Example 440, 2-((3-((3R)-5-amino-3,6,6-trimethyl-1,1-dioxido-3,6-dihydro-2H-1,4-thiazin-3-yl)-4-fluorophenyl)sulfanyl)-4-pyridinecarbonitrile], the concentration for half-maximal inhibition (IC50) stood at 0.566 µM in assay [1] (average IC50, enzyme assay); 0.679 µM in assay [2] (average IC50, cell assay); 218 µM on Cathepsin D (Cat D).
`CC1(C)C(N)=N[C@](C)(c2cc(Nc3nccc4nc(OCCF)cnc34)ccc2F)CS1(=O)=O` [Example 441, N-(3-((3R)-5-amino-3,6,6-trimethyl-1,1-dioxido-3,6-dihydro-2H-1,4-thiazin-3-yl)-4-fluorophenyl)-2-(2-fluoroethoxy)pyrido[3,4-b]pyrazin-5-amine]: the half-maximal inhibitory concentration (IC50) in assay [1] (average IC50, enzyme assay) was 0.00534 µM; in assay [2] (average IC50, cell assay), 0.0138 µM; at Cathepsin D (Cat D) it was 407 µM.
